Where a name gives a salt, the structure may show the parent alone.
Tests used:
[1] = biological target: T1, gastrin receptor (Rattus norvegicus, UniProt P30553); test: gastrin antagonist activity in immature rat stomach assay (pentagastrin dose-response, acid secretion); conditions: isolated immature rat stomach, cumulative pentagastrin dose-response curves, read-out: Gastrin pKb (converted)
T1 construct: The stomach was excised and flushed with ca. 1 ml of unbuffered physiological saline solution; from tissue; host or cells: isolated whole stomach of immature rats (ca. 21 days old)
T1 sequence (P30553 1-452): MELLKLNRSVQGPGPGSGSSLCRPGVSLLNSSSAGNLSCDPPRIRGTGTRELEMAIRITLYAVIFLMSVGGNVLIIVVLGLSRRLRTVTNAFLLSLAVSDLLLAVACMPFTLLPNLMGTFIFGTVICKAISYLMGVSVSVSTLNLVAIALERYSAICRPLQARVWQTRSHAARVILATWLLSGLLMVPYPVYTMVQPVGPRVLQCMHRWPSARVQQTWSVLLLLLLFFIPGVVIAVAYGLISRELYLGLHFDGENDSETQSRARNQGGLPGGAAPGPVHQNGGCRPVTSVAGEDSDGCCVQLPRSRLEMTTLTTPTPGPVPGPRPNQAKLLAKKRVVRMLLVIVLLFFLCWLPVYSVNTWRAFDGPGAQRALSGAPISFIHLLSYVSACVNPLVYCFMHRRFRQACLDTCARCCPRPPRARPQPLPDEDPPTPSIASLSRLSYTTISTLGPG
Summary of the method: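 Isolated, lumen-perfused stomach from immature rats (33-50 g, ca. 21 days) in a 37° organ bath with 3×10^−8 M 5-methylfurmethide, gassed 95% O2/5% CO2. Compound added serosally after 120 min stabilisation; cumulative pentagastrin dose-response curves begun 60 min later, acid secretion followed by perfusate pH.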

[2] = biological target: T2, CCKB receptor (Mus musculus, UniProt P56481); test: CCKB receptor radioligand binding assay in mouse cortical membranes; conditions: [125I]-CCK8(S) 200 pM, 150 min at 21±3°, read-out: CCKB pKi (converted)
T2 construct: The whole brains from male mice (CD1 22-25 g; Charles River) were removed; from tissue; host or cells: cerebral cortex membranes of male CD1 mice
T2 sequence (P56481 1-453): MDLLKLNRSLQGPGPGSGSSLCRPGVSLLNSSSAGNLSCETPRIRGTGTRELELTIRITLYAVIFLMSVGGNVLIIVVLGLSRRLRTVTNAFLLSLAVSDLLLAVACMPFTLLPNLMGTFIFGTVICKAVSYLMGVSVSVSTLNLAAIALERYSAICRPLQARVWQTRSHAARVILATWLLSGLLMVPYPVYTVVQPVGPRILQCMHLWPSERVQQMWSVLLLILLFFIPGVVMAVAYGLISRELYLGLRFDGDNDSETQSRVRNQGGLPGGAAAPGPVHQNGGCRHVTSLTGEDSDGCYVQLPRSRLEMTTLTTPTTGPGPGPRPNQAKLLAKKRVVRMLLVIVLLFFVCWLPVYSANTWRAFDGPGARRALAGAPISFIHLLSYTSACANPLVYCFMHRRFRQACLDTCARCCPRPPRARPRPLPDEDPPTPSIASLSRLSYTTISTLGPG
Summary of the method: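 Bound radioactivity was gamma-counted after rapid GF/B filtration and cold 50 mM Tris-HCl (pH 7.4) washes. The tissue was cerebral cortex from male CD1 mice, prepared as twice-centrifuged membranes in pH 7.2 HEPES/NaCl/KCl/MgCl2/EDTA buffer with bacitracin at 20 mg/ml original wet weight.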

Row | SMILES | Kb [1] [nM] | Ki [2] [nM]
1 | O=C(O)Cc1cccc(NC(=O)c2nc(C3CCCCC3)[nH]c2CCC23CC4CC(CC(C4)C2)C3)c1 [Example 84, (3-{[5-(2-Adamantan-1-yl-ethyl)-2-cyclohexyl-1H-imidazole-4-carbonyl]-amino}-phenyl)-acetic Acid] | 162 | 1.02
2 | CC1(CCc2[nH]c(C3CCCCC3)nc2C(=O)Nc2cccc(C(=O)O)c2)CCCCC1 [Example 133, 3-({2-Cyclohexyl-5-[2-(1-methyl-cyclohexyl)-ethyl]-1H-imidazole-4-carbonyl}-amino)-benzoic Acid] | 12 | 141
3 | O=C(O)c1cccc(NC(=O)c2nc(-c3cccc(Cl)c3Cl)[nH]c2CCC23CC4CC(CC(C4)C2)C3)c1 [Example 69, 3-{[5-(2-Adamantan-1-yl-ethyl)-2-(2,3-dichloro-phenyl)-1H-imidazole-4-carbonyl]-amino}-benzoic Acid] | 89.1 | 398
4 | Cc1c(NC(=O)c2nc(C3CCCCC3)[nH]c2CCC23CC4CC(CC(C4)C2)C3)cccc1C(=O)O [Example 253, 3-{[5-(2-Adamantan-1-yl-ethyl)-2-cyclohexyl-1H-imidazole-4-carbonyl]-amino}-2-methyl-benzoic Acid] | 64.6 | 55
5 | O=C(O)c1cc(NC(=O)c2cc(-c3ccc4ccccc4c3)[nH]c2CC23CC4CC(CC(C4)C2)C3)cc(C(=O)O)c1 [Example 4, 5-[(2-Adamantan-1-ylmethyl-5-naphthalen-2-yl-1H-pyrrole-3-carbonyl)-amino]-isophthalic Acid] | 1620 | 87.1
6 | O=C(O)c1cccc(NC(=O)c2nc(C3CCCCC3)[nH]c2CCCC23CC4CC(CC(C4)C2)C3)c1 [Example 171, 3-{[5-(3-Adamantan-1-yl-propyl)-2-cyclohexyl-1H-imidazole-4-carbonyl]-amino}-benzoic Acid] | 38.9 | 141
7 | CC(C)(C)c1nc(C(=O)Nc2cccc(C(=O)O)c2)c(CCC23CC4CC(CC(C4)C2)C3)[nH]1 [Example 80, 3-{[5-(2-Adamantan-1-yl-ethyl)-2-tert-butyl-1H-imidazole-4-carbonyl]-amino}-benzoic Acid] | 11 | 67.6
8 | O=C(O)c1cccc(NC(=O)c2nc(-c3ccc(F)cc3)[nH]c2CCC23CC4CC(CC(C4)C2)C3)c1 [Example 54, 3-{[5-(2-Adamantan-1-yl-ethyl)-2-(4-fluoro-phenyl)-1H-imidazole-4-carbonyl]-amino}-benzoic Acid] | 813 | 309
9 | CC(C)CN1CCC[C@@H]1c1nc(C(=O)Nc2cccc(C(=O)O)c2)c(CCC23CC4CC(CC(C4)C2)C3)[nH]1 [Example 144, (R)-3-{[5-(2-Adamantan-1-yl-ethyl)-2-[1-(2-methyl-propyl)-pyrrolidin-2-yl]-1H-imidazole-4-carbonyl]-amino}-benzoic Acid] | 14.1 | 437
10 | Cc1ccc(-c2nc(C(=O)Nc3ccc(C)c(C(=O)O)c3)c(CCC34CC5CC(CC(C5)C3)C4)[nH]2)c(C)c1 [Example 151, 5-{[5-(2-Adamantan-1-yl-ethyl)-2-(2,4-dimethyl-phenyl)-1H-imidazole-4-carbonyl]-amino}-2-methyl-benzoic Acid] | 21.9 | 6.31
11 | Cc1ccc(NC(=O)c2nc(-c3ccccc3C)[nH]c2CCC2CCCCC2)cc1C(=O)O [Example 169, 5-{[5-(2-Cyclohexyl-ethyl)-2-o-tolyl-1H-imidazole-4-carbonyl]-amino}-2-methyl-benzoic Acid] | 75.9 | 132
12 | Cc1ccc(NC(=O)c2nc(-c3cccc(Cl)c3Cl)[nH]c2CCC23CC4CC(CC(C4)C2)C3)cc1C(=O)O [Example 150, 5-{[5-(2-Adamantan-1-yl-ethyl)-2-(2,3-dichlorophenyl)-1H-imidazole-4-carbonyl]-amino}-2-methyl-benzoic Acid] | 646 | 145
13 | O=C(O)c1cc(NC(=O)c2[nH]c(-c3ccccc3)nc2CC23CC4CC(CC(C4)C2)C3)cc(C(=O)O)c1 [Example 37, 5-[(5-Adamantan-1-ylmethyl-2-phenyl-1H-imidazole-4-carbonyl)-amino]-isophthalic Acid] | 1260 | 209
14 | CCC(CC)c1nc(C(=O)Nc2ccc(C)c(C(=O)O)c2)c(CCC23CC4CC(CC(C4)C2)C3)[nH]1 [Example 113, 5{-[5-(2-Adamantan-1-yl-ethyl)-2-(1-ethyl-propyl)-1H-imidazole-4-carbonyl]-amino}-2-methyl-benzoic Acid] | 5.5 | 7.24
15 | O=C(O)c1cccc(NC(=O)c2nc(C3CC=CCC3)[nH]c2CCC23CC4CC(CC(C4)C2)C3)c1 (stereo not drawn) [Example 195, 3-{[5-(2-Adamantan-1-yl-ethyl)-2-cyclohex-3-enyl-1H-imidazole-4-carbonyl]-amino}-benzoic Acid] | 6.61 | 42.7
16 | Cc1cc(C)c(-c2nc(C(=O)Nc3cccc(C(=O)O)c3)c(CCC34CC5CC(CC(C5)C3)C4)[nH]2)c(C)c1 [Example 154, 3-{[5-(2-Adamantan-1-yl-ethyl)-2-(2,4,6-trimethyl-phenyl)-1H-imidazole-4-carbonyl]-amino}-benzoic Acid] | 8.71 | 24.5
17 | O=C(O)c1cccc(NC(=O)c2nc(-c3ccccc3F)[nH]c2CCC2CCCCCC2)c1 [Example 43, 3-{[5-(2-Cycloheptyl-ethyl)-2-(2-fluoro-phenyl)-1H-imidazole-4-carbonyl]-amino}-benzoic Acid] | 63.1 | 851
18 | Cc1ccc(C)c(-c2nc(C(=O)Nc3cccc(C(=O)O)c3)c(CCC34CC5CC(CC(C5)C3)C4)[nH]2)c1 [Example 66, 3-{[5-(2-Adamantan-1-yl-ethyl)-2-(2,5-dimethyl-phenyl)-1H-imidazole-4-carbonyl]-amino}-benzoic Acid] | 55 | 200
19 | Cc1ccccc1-c1nc(C(=O)Nc2cccc(CCC(=O)O)c2)c(CCC23CC4CC(CC(C4)C2)C3)[nH]1 [Example 97, 3-(3-{[5-(2-Adamantan-1-yl-ethyl)-2-o-tolyl-1H-imidazole-4-carbonyl]-amino}-phenyl)-propionic Acid Trifluoroacetic Acid Salt] | 501 | 6.76
20 | O=C(O)c1cccc(NC(=O)c2nc(C3CCCO3)[nH]c2CCC23CC4CC(CC(C4)C2)C3)c1 (stereo not drawn) [Example 186, 3-{[5-(2-Adamantan-1-yl-ethyl)-2-(tetrahydro-furan-2-yl)-1H-imidazole-4-carbonyl]-amino}-benzoic Acid] | 11 | 155
21 | O=C(O)c1cccc(NC(=O)c2nc(-c3c(Cl)cccc3Cl)[nH]c2CCC23CC4CC(CC(C4)C2)C3)c1 [Example 148, 3-{[5-(2-Adamantan-1-yl-ethyl)-2-(2,6-dichlorophenyl)-1H-imidazole-4-carbonyl]-amino}-benzoic Acid] | 53.7 | 102
22 | O=C(O)c1cccc(NC(=O)c2nc(-c3ccc(Cl)cc3Cl)[nH]c2CCC23CC4CC(CC(C4)C2)C3)c1 [Example 146, 3-{[5-(2-Adamantan-1-yl-ethyl)-2-(2,4-dichlorophenyl)-1H-imidazole-4-carbonyl]-amino}-benzoic Acid] | 51.3 | 151
23 | O=C(O)c1cccc(NC(=O)c2nc(CC34CC5CC(CC(C5)C3)C4)[nH]c2CCc2ccccc2)c1 [Example 86, 3-[(2-Adamantan-1-ylmethyl-5-phenethyl-1H-imidazole-4-carbonyl)-amino]-benzoic Acid] | 741 | 1020
24 | Cc1ccc(NC(=O)c2nc(C3CCCCC3)[nH]c2CCC2C3CC4CC(C3)CC2C4)cc1C(=O)O (stereo not drawn) [Example 173, 5-{[5-(2-Adamantan-2-yl-ethyl)-2-cyclohexyl-1H-imidazole-4-carbonyl]-amino}-2-methyl-benzoic Acid] | 4.79 | 6.17
